From PubChem BioAssay (NCI)
Several values for one entry are separate records, joined by “and”; a condition that tells them apart may be missing. Identical values can stand only once.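 In this assay, cells in 96-well plates receive the compound at five concentrations for 48 hours. Endpoints are linearly interpolated between the surrounding concentrations. GI50 marks 50% less growth. TGI marks complete inhibition of growth.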

How the values were obtained:
Assay in all cases: growth of human tumour cells (NCI), 48 h
NCI/ADR-RES ovarian = tested on: NCI/ADR-RES ovarian
IGROV1 ovarian = tested on: IGROV1 ovarian
HCT-15 colon = tested on: HCT-15 colon
HL-60(TB) leukemia = tested on: HL-60(TB) leukemia
MDA-MB-435 = tested on: MDA-MB-435
EKVX NSCLC = tested on: EKVX NSCLC
OVCAR-5 ovarian = tested on: OVCAR-5 ovarian
SN12C renal = tested on: SN12C renal
UO-31 renal = tested on: UO-31 renal
TK-10 renal = tested on: TK-10 renal
HCC-2998 colon = tested on: HCC-2998 colon

Compound | TGI (NCI/ADR-RES ovarian) | TGI (IGROV1 ovarian) | TGI (HCT-15 colon) | TGI (HL-60(TB) leukemia) | TGI (MDA-MB-435) | TGI (EKVX NSCLC) | TGI (OVCAR-5 ovarian) | TGI (SN12C renal) | TGI (UO-31 renal) | TGI (TK-10 renal) | TGI (HCC-2998 colon) | GI50 (NCI/ADR-RES ovarian) | GI50 (IGROV1 ovarian) | GI50 (HCT-15 colon) | GI50 (HL-60(TB) leukemia) | GI50 (HCC-2998 colon) | GI50 (OVCAR-5 ovarian) | GI50 (SN12C renal) | GI50 (UO-31 renal)
C[C@]12CC/C(=N\O)C=C1CC[C@@H]1[C@@H]2CC[C@]2(C)C(=N/O)/C(=C/c3cccnc3)C[C@@H]12 | > 100 µM | > 100 µM | 44.5 µM | 4.12 µM | 46.9 µM | 79.5 µM | 75.3 µM | 43.5 µM | 79.9 µM | 59.3 µM | – | – | – | – | – | – | – | – | –
CCn1c(=O)c2c3cc(O)ccc3oc2c2ccc(O)cc21 | > 100 µM | > 100 µM | > 100 µM | – | > 100 µM | 62.6 µM | – | > 100 µM | 46.6 µM | > 100 µM | 50.9 µM | – | – | – | – | – | – | – | –
NCCCC(N)C(=O)O (stereo not drawn) | > 100 µM | > 100 µM | > 100 µM | > 100 µM | > 100 µM | > 100 µM | > 100 µM | > 100 µM | > 100 µM | > 100 µM | – | – | – | – | – | – | – | – | –
COc1cc([C@@H]2c3cc4c(cc3C[C@H]3COC(=O)[C@@H]32)OCO4)cc(OC)c1OC | 0.202 µM | > 50 µM | > 2.32 µM | 0.00526 µM and 0.0126 µM | – | > 50 µM | > 50 µM | > 10.8 µM | 13.2 µM | – | 1.01 µM | 0.00917 µM | 0.00618 µM | 0.00318 µM and 0.0109 µM | 0.00202 µM | 0.00446 µM | 0.00692 µM | 0.0067 µM | 0.00501 µM
N#CSCc1cccc(Nc2cc(=O)[nH]c(=O)[nH]2)c1 | > 100 µM | > 100 µM | > 100 µM | – | > 100 µM | > 100 µM | > 100 µM | > 100 µM | > 100 µM | > 100 µM | > 100 µM | – | – | – | – | – | – | – | –
O=C(O)CNC(=O)c1ccc([As](=O)(O)O)cc1 | > 100 µM | > 100 µM | > 100 µM | > 100 µM | > 100 µM | > 100 µM | > 100 µM | > 100 µM | > 100 µM | > 100 µM | – | – | – | – | – | – | – | – | –
CCOC(=O)C1CC(O)C(=O)N1C (stereo not drawn) | – | > 100 µM | > 100 µM | > 100 µM | > 100 µM | > 100 µM | > 100 µM | > 100 µM | > 100 µM | > 100 µM | > 100 µM | – | – | – | – | – | – | – | –
Brc1ccc2c3c1[C@@H]1O[C@@H]1c1cccc(c1-3)[C@@H]1O[C@H]21 | 45.4 µM | – | 49.8 µM | 66.5 µM | 48.3 µM | 39.4 µM | 34.3 µM | 45.9 µM | 43.8 µM | > 100 µM | – | – | – | – | – | – | – | – | –
CC1=CC(=O)N(n2c(C)n[nH]c2=O)C1=O | > 100 µM | > 100 µM | > 100 µM | – | > 100 µM | > 100 µM | > 100 µM | > 100 µM | > 100 µM | > 100 µM | > 100 µM | – | – | – | – | – | – | – | –
CC(=O)Nc1ccc(Cl)c(Cl)c1 | – | > 100 µM | > 100 µM | – | – | > 100 µM | – | > 100 µM | > 100 µM | > 100 µM | > 100 µM | – | – | – | – | – | – | – | –
CC(C)=CC1C(C(=O)O)C1(C)C (stereo not drawn) | > 750 µM | > 750 µM | > 750 µM | > 750 µM | – | > 750 µM | > 750 µM | > 750 µM | > 750 µM | – | > 750 µM | – | – | – | – | – | – | – | –
O=C1C(Cl)N(c2ccccc2)C1c1c[nH]c2ccccc12 (stereo not drawn) | – | > 100 µM | – | > 100 µM | – | > 100 µM | > 100 µM | > 100 µM | > 100 µM | > 100 µM | – | – | – | – | – | – | – | – | –
CC(C)/C(Cl)=N\OC(=O)NNc1ccccc1 | > 100 µM | > 100 µM | > 53.7 µM | – | > 100 µM | 37.3 µM | > 100 µM | > 74.7 µM | – | > 100 µM | > 100 µM | – | – | – | – | – | – | – | –
Cc1cc2cccc(Cl)c2nc1C(=O)c1ccccc1 | – | > 100 µM | > 100 µM | – | – | – | > 100 µM | > 100 µM | > 100 µM | > 100 µM | > 100 µM | – | – | – | – | – | – | – | –
COC(=O)C1CC(C=[N+](C)C)=C(SC)N1 (stereo not drawn) | > 100 µM | > 100 µM | > 100 µM | – | > 100 µM | > 100 µM | > 100 µM | – | > 100 µM | > 100 µM | > 100 µM | – | – | – | – | – | – | – | –
COc1cc2c(cc1OC)C(=O)/C(=C/c1cc(C)c(O)c(C)c1)C2 | > 100 µM | > 100 µM | > 100 µM | > 100 µM | – | > 100 µM | 13.5 µM | > 100 µM | > 100 µM | > 100 µM | > 100 µM | – | – | – | – | – | – | – | –
